Columns and labels:
[1] = molecular target: T1, rat mGluR5 receptor (Rattus norvegicus, UniProt P31424); experiment: [3H]-MPEP binding HEK-293 cell membranes expressing a rat mGluR5 receptor; settings: displacement of 4 nM [3H]-MPEP, HEK-293 cell membranes expressing rat mGluR5, 60 minute at room temperature; read-out: mGluR5 Ligand Binding DR Ki
T1 construct: expressed in transfected cells; host or cells: HEK-293
Procedure, shortened: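 Membranes from HEK-293 cells expressing rat mGluR5 incubated 60 min at room temperature in 50 mM Tris pH 7.5 with 4 nM [3H]-MPEP; 10 μM MPEP defines non-specific binding; filtration read-out. Single-point % inhibition at 10 μM, then Ki from IC50 via Cheng-Prusoff for actives.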

[2] = molecular target: T2, metabotropic glutamate receptor 5 (Rattus norvegicus, UniProt P31424); experiment: FLIPR Calcium 3 fluorescence-based functional assay of intracellular calcium, mGluR5 antagonist activity; format: cell-based; settings: inhibition of glutamate (EC90, ~50 uM) stimulated calcium levels, mGluR5 HEK-293 cells; read-out: mGluR5 FLIPR MP Antagonist DR IC50
T2 construct: expressed in transfected cells; host or cells: HEK-293
T2 sequence (P31424 21-1203): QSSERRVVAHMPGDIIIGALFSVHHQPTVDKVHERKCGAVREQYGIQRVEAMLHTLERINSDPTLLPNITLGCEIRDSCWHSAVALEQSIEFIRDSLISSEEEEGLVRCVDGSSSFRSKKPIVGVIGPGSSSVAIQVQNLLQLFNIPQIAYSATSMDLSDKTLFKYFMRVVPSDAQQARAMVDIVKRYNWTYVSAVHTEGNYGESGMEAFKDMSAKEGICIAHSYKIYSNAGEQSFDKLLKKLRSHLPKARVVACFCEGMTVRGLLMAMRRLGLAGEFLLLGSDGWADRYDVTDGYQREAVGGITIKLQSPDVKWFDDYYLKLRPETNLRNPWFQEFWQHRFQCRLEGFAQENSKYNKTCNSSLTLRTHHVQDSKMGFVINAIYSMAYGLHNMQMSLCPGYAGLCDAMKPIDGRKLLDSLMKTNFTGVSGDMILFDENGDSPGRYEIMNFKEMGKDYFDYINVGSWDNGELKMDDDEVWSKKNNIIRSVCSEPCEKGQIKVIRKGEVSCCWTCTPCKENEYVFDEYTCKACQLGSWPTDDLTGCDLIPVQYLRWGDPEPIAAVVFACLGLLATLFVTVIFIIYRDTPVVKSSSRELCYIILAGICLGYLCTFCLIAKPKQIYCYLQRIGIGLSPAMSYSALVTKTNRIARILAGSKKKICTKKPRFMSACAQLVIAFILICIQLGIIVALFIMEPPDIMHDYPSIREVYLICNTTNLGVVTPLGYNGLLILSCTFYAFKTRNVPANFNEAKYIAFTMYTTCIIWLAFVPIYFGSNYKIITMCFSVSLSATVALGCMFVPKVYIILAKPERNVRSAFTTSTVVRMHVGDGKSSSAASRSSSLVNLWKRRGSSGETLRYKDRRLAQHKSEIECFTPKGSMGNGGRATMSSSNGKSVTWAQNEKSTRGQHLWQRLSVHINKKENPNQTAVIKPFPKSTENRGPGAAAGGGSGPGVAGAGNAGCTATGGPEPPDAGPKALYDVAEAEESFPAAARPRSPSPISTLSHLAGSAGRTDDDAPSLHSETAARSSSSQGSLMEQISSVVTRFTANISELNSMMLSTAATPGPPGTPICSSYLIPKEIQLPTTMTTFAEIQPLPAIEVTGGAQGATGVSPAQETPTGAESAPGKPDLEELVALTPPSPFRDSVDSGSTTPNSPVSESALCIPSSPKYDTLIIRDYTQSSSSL
Procedure, shortened: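 mGluR5 HEK-293 cells (50,000/well, plated overnight) are loaded with FLIPR Calcium 3 dye for 1 h at 37 °C. Compound is added and fluorescence recorded on FLIPR. Inhibition of the glutamate-stimulated calcium signal is given as %, with IC50 from a 4-parameter logistic fit.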

T1 sequence (P31424 21-1203): as above

Row | Compound | Ki [1] [nM] | IC50 [2] [nM]
1 | O=C(c1ccc(C(F)(F)F)c(C#Cc2ccccn2)c1)N1CCc2[nH]cnc2C1 [Example 101, 5-{[3-(Pyridin-2-ylethynyl)-4-(trifluoromethyl)phenyl]carbonyl}-4,5,6,7-tetrahydro-1H-imidazo[4,5-c]pyridine] | 36 | 18
2 | CCOc1ccc(C(=O)N2Cc3ccccc3C2)cc1C#Cc1ccccn1 [Example 78, 2-[4-ethoxy-3-(pyridin-2-ylethynyl)benzoyl]isoindoline] | 5 | 12
3 | O=C(c1ccc(Cl)c(C#Cc2ccccn2)c1)N1CCc2[nH]cnc2C1 [Example 67, 5-{[4-chloro-3-(pyridin-2-ylethynyl)phenyl]carbonyl}-4,5,6,7-tetrahydro-1H-imidazo[4,5-c]pyridine] | 16 | 27
4 | COc1ccc(C(=O)N2CCc3ccccc3CC2)cc1C#Cc1ccccn1 [Example 57, 3-{[4-methoxy-3-(pyridin-2-ylethynyl)phenyl]carbonyl}-2,3,4,5-tetrahydro-1H-3-benzazepine] | 15 | 17
5 | O=C(c1ccc(C(F)(F)F)c(C#Cc2ccccn2)c1)N1Cc2cccnc2C1 [Example 92, 6-{[3-(Pyridin-2-ylethynyl)-4-(trifluoromethyl)phenyl]carbonyl}-6,7-dihydro-5H-pyrrolo[3,4-b]pyridine] | 3 | 7
6 | COc1ccc(C(=O)N2CCc3ccccc3C2c2ccccc2)cc1C#Cc1ccccn1 (stereo not drawn) [Example 26, 2-[4-methoxy-3-(pyridin-2-ylethynyl)benzoyl]-1-phenyl-1,2,3,4-tetrahydroisoquinoline] | 57 | 169
7 | O=C(c1ccc(F)c(C#Cc2ccccn2)c1)N1CCc2c(Cl)cccc2C1 [Example 73, 5-chloro-2-[4-fluoro-3-(pyridin-2-ylethynyl)benzoyl]-1,2,3,4-tetrahydroisoquinoline] | 1 | 40
8 | Cc1nc2c(o1)CCN(C(=O)c1ccc(C)c(C#Cc3ccccn3)c1)C2 [Example 90, 2-methyl-5-{[4-methyl-3-(pyridin-2-ylethynyl)phenyl]carbonyl}-4,5,6,7-tetrahydro[1,3]oxazolo[4,5-c]pyridine] | 16 | 9
9 | COc1ccc(C(=O)N2Cc3cnc(C)c(Cl)c3C2)cc1C#Cc1ccccn1 [Example 43, 7-chloro-2-[4-methoxy-3-(pyridin-2-ylethynyl)benzoyl]-6-methyl-2,3-dihydro-1H-pyrrolo[3,4-c]pyridine] | 12 | 17
10 | O=C(c1ccc(C(F)(F)F)c(C#Cc2ccccn2)c1)N1Cc2ccccc2C1 [Example 96, 2-{[3-(Pyridin-2-ylethynyl)-4-(trifluoromethyl)phenyl]carbonyl}-2,3-dihydro-1H-isoindole] | 5 | 69
11 | COc1ccc(C(=O)N2Cc3ccccc3C2)cc1C#Cc1ccccn1 [Example 1, 2-[4-Methoxy-3-(pyridin-2-ylethynyl)benzoyl]isoindoline] | 4 | 10
12 | COc1ccc(C(=O)N2CCc3ccc(Cl)cc3C2)cc1C#Cc1ccccn1 [Example 8, 7-chloro-2-[4-methoxy-3-(pyridin-2-ylethynyl)benzoyl]-1,2,3,4-tetrahydroisoquinoline] | 1 | 16
13 | COc1ccc(C(=O)N2CCc3sccc3C2)cc1C#Cc1ccccn1 [Example 13, 5-[4-methoxy-3-(pyridin-2-ylethynyl)benzoyl]-4,5,6,7-tetrahydrothieno[3,2-c]pyridine] | 5 | 44
14 | 2-[4-methoxy-3-(pyridin-2-ylethynyl)benzoyl]-7-(trifluoromethyl)-1,2,3,4-tetrahydroisoquinoline [Example 16] | 1 | 125
15 | COc1ccc(C(=O)N2CCc3c(cccc3C(F)(F)F)C2)cc1C#Cc1ccccn1 [Example 4, 2-[4-methoxy-3-(pyridin-2-ylethynyl)benzoyl]-5-(trifluoromethyl)-1,2,3,4-tetrahydroisoquinoline] | 0.4 | 134
16 | COc1ccc(C(=O)N2CCOc3ccccc3C2)cc1C#Cc1ccccn1 [Example 55, 4-{[4-methoxy-3-(pyridin-2-ylethynyl)phenyl]carbonyl}-2,3,4,5-tetrahydro-1,4-benzoxazepine] | 29 | 12
17 | CCOc1ccc(C(=O)N2CCc3ccc(Cl)cc3C2)cc1C#Cc1ccccn1 [Example 76, 7-chloro-2-[4-ethoxy-3-(pyridin-2-ylethynyl)benzoyl]-1,2,3,4-tetrahydroisoquinoline] | 1 | 42
18 | COc1ccc(C(=O)N2CCCc3ccccc3C2)cc1C#Cc1ccccn1 [Example 59, 2-{[4-methoxy-3-(pyridin-2-ylethynyl)phenyl]carbonyl}-2,3,4,5-tetrahydro-1H-2-benzazepine] | 42 | 29

— patent publication US20100273772A1, “Bisaryl Alkynylamides as Negative Allosteric Modulators of Metabotropic Glutamate Receptor 5 (MGLUR5)” (Wyeth LLC, priority 2009, published 2010)
